From patent publication US9040530B2, “1,2,4-triazine-6-carboxamide kinase inhibitors” (Portola Pharmaceuticals, Inc., priority 2012, dated 2015)

Molecular target: T1, full length active recombinant SYK enzyme (Homo sapiens, UniProt P43405)
T1 construct: full length active recombinant SYK enzyme (Millipore, Calif.); purchased Millipore
Test: Inhibition of Syk tyrosine phosphorylation activity (LANCE TR-FRET kinase assay)
Type: biochemical
Conditions: 1 nM active SYK enzyme, 550 nM SYK-substrate, 100 μM ATP, 1 hour at room temperature

Compound | IC50
NC(=O)c1nnc(N[C@@H]2CCCC(F)(F)[C@@H]2N)nc1Nc1cccc(-c2ncccn2)c1 [Example 2, 3-(((1R,2R)-2-amino-3,3-difluorocyclohexyl)amino)-5-((3-(pyrimidin-2-yl)phenyl)amino)-1,2,4-triazine-6-carboxamide] | 100 to 1000 nM
Cn1ccc2ccc(Nc3nc(N[C@@H]4CCCC[C@@H]4N)nnc3C(N)=O)cc21 [Example 119, 3-(((1R,2S)-2-aminocyclohexyl)amino)-5-((1-methyl-1H-indol-6-yl)amino)-1,2,4-triazine-6-carboxamide] | 1 to 10 nM
Cn1ncc2ccc(Nc3nc(N[C@@H]4CCCC[C@@H]4N)nnc3C(N)=O)cc21 [Example 182, 3-(((1R,2S)-2-aminocyclohexyl)amino)-5-((1-methyl-1H-indazol-6-yl)amino)-1,2,4-triazine-6-carboxamide] | < 1 nM
CC[C@@H](Nc1nnc(C(N)=O)c(Nc2ccc(C(F)(F)F)c(Cl)c2)n1)C(N)=O [Example 241, (R)-3-((1-amino-1-oxobutan-2-yl)amino)-5-((3-chloro-4-(trifluoromethyl)phenyl)amino)-1,2,4-triazine-6-carboxamide] | 10 to 100 nM
CC[C@@H](Nc1nnc(C(N)=O)c(Nc2ccc(C(F)(F)F)cc2)n1)C(N)=O [Example 169, (R)-3-((1-amino-1-oxobutan-2-yl)amino)-5-((4-(trifluoromethyl)phenyl)amino)-1,2,4-triazine-6-carboxamide] | 10 to 100 nM
COc1cc(Nc2nc(N[C@@H]3CCOC[C@@H]3N)nnc2C(N)=O)ccc1Cl [Example 256, 3-(((3R,4R)-3-aminotetrahydro-2H-pyran-4-yl)amino)-5-((4-chloro-3-methoxyphenyl)amino)-1,2,4-triazine-6-carboxamide] | 10 to 100 nM
NC(=O)c1nnc(N[C@H]2CC[C@@H](N)CC2)nc1Nc1ccc2ncccc2c1 [Example 56, 3-(((1S,4S)-4-aminocyclohexyl)amino)-5-(quinolin-6-ylamino)-1,2,4-triazine-6-carboxamide] | 10 to 100 nM
CC(C)C[C@@H](Nc1nnc(C(N)=O)c(Nc2cccc(-n3nccn3)c2)n1)C(N)=O [Example 83, (R)-5-((3-(2H-1,2,3-triazol-2-yl)phenyl)amino)-3-((1-amino-4-methyl-1-oxopentan-2-yl)amino)-1,2,4-triazine-6-carboxamide] | 10 to 100 nM
NC(=O)c1nnc(N[C@H](CC2CC2)C(N)=O)nc1Nc1ccc(Cl)c(Cl)c1 [Example 254, (R)-3-((1-amino-3-cyclopropyl-1-oxopropan-2-yl)amino)-5-((3,4-dichlorophenyl)amino)-1,2,4-triazine-6-carboxamide] | 10 to 100 nM
Cn1cc(C#N)c2ccc(Nc3nc(N[C@@H]4CCOC[C@@H]4N)nnc3C(N)=O)cc21 [Example 172, 3-(((3R,4R)-3-aminotetrahydro-2H-pyran-4-yl)amino)-5-((3-cyano-1-methyl-1H-indol-6-yl)amino)-1,2,4-triazine-6-carboxamide] | 1 to 10 nM
COC[C@@H](Nc1nnc(C(N)=O)c(Nc2ccc(C)cc2)n1)C(N)=O [Example 187, (R)-3-(1-amino-3-methoxy-1-oxopropan-2-ylamino)-5-(p-tolylamino)-1,2,4-triazine-6-carboxamide] | 100 to 1000 nM
N#Cc1ccccc1Nc1nc(N[C@@H]2CCCC[C@@H]2N)nnc1C(N)=O [Example 115, 3-(((1R,2S)-2-aminocyclohexyl)amino)-5-((2-cyanophenyl)amino)-1,2,4-triazine-6-carboxamide] | 100 to 1000 nM
COc1ccc(Nc2nc(N[C@@H]3CCCC[C@@H]3N)nnc2C(N)=O)cc1Cl [Example 125, 3-(((1R,2S)-2-aminocyclohexyl)amino)-5-((3-chloro-4-methoxyphenyl)amino)-1,2,4-triazine-6-carboxamide] | 1 to 10 nM
CC[C@@H](Nc1nnc(C(N)=O)c(Nc2cnc3c(ccn3C)c2)n1)C(N)=O [Example 152, (R)-3-((1-amino-1-oxobutan-2-yl)amino)-5-((1-methyl-1H-pyrrolo[2,3-b]pyridin-5-yl)amino)-1,2,4-triazine-6-carboxamide] | 10 to 100 nM
Cc1ccc(Nc2nc(N[C@@H]3CCCC[C@@H]3N)nnc2C(N)=O)cc1C [Example 207, 3-(((1R,2S)-2-aminocyclohexyl)amino)-5-((3,4-dimethylphenyl)amino)-1,2,4-triazine-6-carboxamide] | 1 to 10 nM
Cc1ccc(Nc2nc(N[C@@H](C(N)=O)C(C)C)nnc2C(N)=O)cc1C [Example 208, (R)-3-((1-amino-3-methyl-1-oxobutan-2-yl)amino)-5-((3,4-dimethylphenyl)amino)-1,2,4-triazine-6-carboxamide] | 10 to 100 nM
NC(=O)c1nnc(N[C@@H]2CCCC[C@@H]2N)nc1Nc1cccc(-c2ncccn2)c1 [Example 1, 3-((1R,2S)-2-aminocyclohexylamino)-5-(3-(pyrimidin-2-yl)phenylamino)-1,2,4-triazine-6-carboxamide] | 1 to 10 nM
CC[C@@H](Nc1nnc(C(N)=O)c(Nc2ccc3cnn(C)c3c2)n1)C(N)=O [Example 180, (R)-3-((1-amino-1-oxobutan-2-yl)amino)-5-((1-methyl-1H-indazol-6-yl)amino)-1,2,4-triazine-6-carboxamide] | 1 to 10 nM
Cn1ccc2c(Nc3nc(N[C@@H]4CCOC[C@@H]4N)nnc3C(N)=O)cccc21 [Example 82, 3-(((3R,4R)-3-aminotetrahydro-2H-pyran-4-yl)amino)-5-((1-methyl-1H-indol-4-yl)amino)-1,2,4-triazine-6-carboxamide] | 1 to 10 nM
Cc1cc(F)cc(Nc2nc(N[C@@H]3CCCC(F)(F)[C@@H]3N)nnc2C(N)=O)c1 [Example 202, 3-(((1R,2R)-2-amino-3,3-difluorocyclohexyl)amino)-5-((3-fluoro-5-methylphenyl)amino)-1,2,4-triazine-6-carboxamide] | 10 to 100 nM
CC[C@@H](Nc1nnc(C(N)=O)c(Nc2cnc3ccc(F)cc3c2)n1)C(N)=O [Example 123, (R)-3-((1-amino-1-oxobutan-2-yl)amino)-5-((6-fluoroquinolin-3-yl)amino)-1,2,4-triazine-6-carboxamide] | 10 to 100 nM
NC(=O)c1nnc(N[C@@H]2CCOC[C@@H]2N)nc1Nc1cccc(-c2ncco2)c1 [Example 252, 3-(((3R,4R)-3-aminotetrahydro-2H-pyran-4-yl)amino)-5-((3-(oxazol-2-yl)phenyl)amino)-1,2,4-triazine-6-carboxamide] | 1 to 10 nM
CC[C@@H](Nc1nnc(C(N)=O)c(Nc2ccc(OC)c(Cl)c2)n1)C(N)=O [Example 174, (R)-3-((1-amino-1-oxobutan-2-yl)amino)-5-((3-chloro-4-methoxyphenyl)amino)-1,2,4-triazine-6-carboxamide] | 10 to 100 nM
CC[C@@H](Nc1nnc(C(N)=O)c(Nc2ccc(Cl)cc2)n1)C(N)=O [Example 200, (R)-3-((1-amino-1-oxobutan-2-yl)amino)-5-((4-chlorophenyl)amino)-1,2,4-triazine-6-carboxamide] | 10 to 100 nM
NC(=O)c1nnc(N[C@@H]2CCCC[C@@H]2N)nc1Nc1ccc2ncsc2c1 [Example 42, 3-(((1R,2S)-2-aminocyclohexyl)amino)-5-(benzo[d]thiazol-6-ylamino)-1,2,4-triazine-6-carboxamide] | 1 to 10 nM
